Measured values: US8551981B2, “Furo[3,2-d]pyrimidine compounds” (AbbVie Inc., priority 2010, dated 2013)

Test system: Fcγ receptor signaling
Assay: Reverse Passive Arthus model
Assay type: in vivo
Conditions: Rattus norvegicus, single dose 10 mg/kg
Method: Acute in vivo measurement of Fcγ receptor signaling inhibition of the compounds is measured using the:
Reverse Passive Arthus Model
On day 0 OVA was made up at a concentration of 17 mg/mL, in PBS by rocking gently until a solution was formed. 2% Evans Blue solution (Sigma Aldrich, cat# E2129) was then added to double the volume for a final concentration of 8.5 mg/mL of OVA and 1% Evans Blue dye. Anti-OVA antibody (Abazyme), stock concentration 10 mg/mL, was thawed and a 4 mg/mL solution was made with PBS. Compounds were made up in 0.5% HPMC with 0.02% Tween 80, and vortexed for about 15 seconds followed by homogenization for a minimum of about 2 min at 28,000 RPM until there was a fine particulate suspension with no clumps of compound. Rats were weighed and dosed with compound at a pre-determined time based on compound Tmax determined in pharmacokinetic studies. Animals were then placed under general anesthesia with a 5% isoflourane and oxygen mixture and shaved. Using a 0.5 cc insulin syringe two sites were injected i.d., 1 site with 100 μL of 4.0 mg/mL of anti-OVA antibody, and 1 site with 100 μL of sterile PBS. Each injection site was circled with a permanent marker to mark the site. Immediately following i.d. injections, animals were injected with 200 μL of the OVA (10 mg/kg)/1% Evans Blue mixture, i.v., using a 0.5 cc insulin syringe. About 4 h post injection animals were euthanized, bled via cardiac puncture and blood was put into plasma separation tubes. Blood samples were stored on ice until centrifugation (within about 2 h of collection). Each injection site was removed with a disposable biopsy punch (Acuderm Acu-Punch Disposable 12 mm), cut into four pieces and placed in a pre-labeled 2 mL eppendorf tube. One mL of DMF (99%) was added to each biopsy tube and they were placed in a heat block at about 50° C. for about 24 h. After incubation, 100 μL of each sample was transferred to a 96 well flat bottom plate and read at 620 nm on a plate reader using the Softmax software. Background was removed by subtracting the OD from the PBS injected site from the OD of the anti-OVA injected site for each individual animal. Plasma samples were spun down in a microcentrifuge (Eppendorf 5415R) for about 5 min at 16.1 rcf. 200 μL of plasma was placed in a 1.7 mL eppendorf tube for drug level measurements and tubes were stored at about −80° C. until evaluation.

| SMILES | inhibition in vivo at 10 mg/kg [%] |
| --- | --- |
| Clc1cc(Nc2nc(NC3CCC3)c3occc3n2)ccc1N1CCOCC1 [B.5.2] | 55 |
| Cn1ncc2cc(Nc3nc(NC4CC4)c4occc4n3)ccc21 [B.5.8] | 49 |
| FC(F)(F)CNc1nc(Nc2ccc(N3CCOCC3)c(Cl)c2)nc2ccoc12 [B.5.13] | 17 |
| O=C1Nc2cc(Nc3nc(NC4CC4)c4occc4n3)ccc2OC1(F)F [B.5.40] | 3 |
| CC1(C)Cc2ccc(Nc3nc(NC4CC4)c4occc4n3)cc2NC1=O [B.5.41] | 42 |
| CC(C)(C#N)c1ccc(Nc2nc(NC3CC3)c3occc3n2)cc1 [B.5.42] | 27 |
| O=c1[nH]c2cc(Nc3nc(NC4CC4)c4occc4n3)ccc2cc1CO [B.5.50] | 0 |
| O=c1ccc2ccc(Nc3nc(NC4CC4)c4occc4n3)cc2o1 [B.5.52] | 0 |
| O=C1CCCc2cc(Nc3nc(NC4CC4)c4occc4n3)ccc2N1 [B.5.56] | 49 |
| CC1(C)C(=O)Nc2cc(Nc3nc(N4CCC(CNCC(F)F)CC4)c4occc4n3)ccc21 [B.5.60] | 10 |
| CC1(C)C(=O)Nc2cc(Nc3nc(N[C@@H]4[C@H](C(N)=O)[C@H]5C=C[C@@H]4C5)c4occc4n3)ccc21 [B.5.61] | 1 |
| CC1(C)Oc2ccc(Nc3nc(Nc4ccc5c(c4)NC(=O)C(C)(C)O5)c4occc4n3)cc2NC1=O [B.5.62] | 16 |
| CC1(C)Oc2ccc(Nc3nc(N4CCC(CNCCS(C)(=O)=O)CC4)c4occc4n3)cc2NC1=O [B.5.65] | 9 |
| CC1(C)C(=O)Nc2cc(Nc3nc(N4CCC(CNCCS(C)(=O)=O)CC4)c4occc4n3)ccc21 [B.5.68] | 1 |
| CC1(C)C(=O)Nc2cc(Nc3nc(N4CCC(CNCCF)CC4)c4occc4n3)ccc21 [B.5.77] | 20 |
| CC(C)CNc1nc(Nc2ccc3c(c2)NC(=O)C3(C)C)nc2ccoc12 [B.5.80] | 46 |
| CCCNc1nc(Nc2ccc3c(c2)NC(=O)C3(C)C)nc2ccoc12 [B.5.81] | 16 |
| O=C1COc2ccc(Nc3nc(N4CCC(CNCC(F)F)CC4)c4occc4n3)cc2N1 [B.5.84] | 38 |
| FC(F)CNCC1CCN(c2nc(Nc3ccc(N4CCOCC4)c(Cl)c3)nc3ccoc23)CC1 [B.5.85] | 52 |
| Cc1cc2ccc(Nc3nc(NC4CC4)c4occc4n3)cc2[nH]c1=O [B.5.99] | 16 |
| CC1(C)C(=O)Nc2cc(Nc3nc(NC4CCC4)c4occc4n3)ccc21 [B.5.108] | 56 |
| CNCC1CCN(c2nc(Nc3ccc(N4CCN(C(C)=O)CC4)cc3)nc3ccoc23)CC1 [C.1.2] | -17 |
| CC(=O)N(C)c1ccc(Nc2nc(N3CCC(CN)CC3)c3occc3n2)cc1 [C.1.7] | 22 |
| CCCC(=O)Nc1ccc(Nc2nc(N3CCC(CN)CC3)c3occc3n2)cc1 [C.1.8] | 0 |
| CNCC1CCN(c2nc(Nc3ccc4cn[nH]c4c3)nc3ccoc23)CC1 [C.1.23] | -15 |
| Cc1n[nH]c2cc(Nc3nc(N4CCCC(N)CC4)c4occc4n3)ccc12 (stereo not shown) [C.1.29] | -5 |

| SMILES | inhibition in vivo at 10 mg/kg [%] |
| --- | --- |
| Cc1n[nH]c2cc(Nc3nc(N4CCC(C)(CN)CC4)c4occc4n3)ccc12 [C.1.31] | 0 |
| CC1(CN)CCN(c2nc(Nc3ccc4c(c3)NC(=O)C4(C)C)nc3ccoc23)CC1 [C.1.32] | 8 |
| CC1(CN)CCN(c2nc(Nc3ccc4c(c3)NC(=O)C(C)(C)O4)nc3ccoc23)CC1 [C.1.33] | 30 |
| CC1(C)Oc2ccc(Nc3nc(N4CCC5(CCCNC5)C4)c4occc4n3)cc2NC1=O (stereo not shown) [C.1.36] | -31 |
| CC1(C)C(=O)Nc2cc(Nc3nc(N4CCC5(CCCNC5)CC4)c4occc4n3)ccc21 [C.1.37] | -5 |
| COc1cc(Nc2nc(N3CCC4(CCCNC4)CC3)c3occc3n2)ccc1N1CCOCC1 [C.1.39] | 44 |
| Cn1ncc2cc(Nc3nc(N4CCC5(CCNC5)CC4)c4occc4n3)ccc21 [C.1.40] | 40 |
| Clc1cc(Nc2nc(N3CCC4(CCCNC4)CC3)c3occc3n2)ccc1N1CCOCC1 [C.1.41] | 40 |
| Cn1ncc2cc(Nc3nc(N4CCC5(CCCNC5)CC4)c4occc4n3)ccc21 [C.1.43] | 56 |
| Clc1cc(Nc2nc(N3CCC4(CCNC4)CC3)c3occc3n2)ccc1N1CCOCC1 [C.1.44] | 54 |
| CNCC1CCN(c2nc(Nc3ccc4c(C)n[nH]c4c3)nc3ccoc23)CC1 [C.1.48] | 1 |
| CNCC1CCN(c2nc(Nc3ccc4c(cnn4C)c3)nc3ccoc23)CC1 [C.1.49] | -20 |
| CNCC1CCN(c2nc(Nc3ccc4c(c3)NC(=O)C4(C)C)nc3ccoc23)CC1 [C.1.51] | -7 |
| Cc1n[nH]c2cc(Nc3nc(N[C@@H]4[C@H](C(N)=O)[C@H]5C=C[C@@H]4C5)c4occc4n3)ccc12 [C.1.52] | 8 |
| CNCC1CCN(c2nc(Nc3ccc(C(C)(C)C#N)cc3)nc3ccoc23)CC1 [C.1.57] | 12 |
| CC1(C)Oc2ccc(Nc3nc(N4CCC5(CCNC5)CC4)c4occc4n3)cc2NC1=O [C.1.58] | -18 |
| CC1(C)Oc2ccc(Nc3nc(N4CCC5(CCCNC5)CC4)c4occc4n3)cc2NC1=O [C.1.59] | 20 |
| Cc1n[nH]c2cc(Nc3nc(N4CCC(CNCCS(C)(=O)=O)CC4)c4occc4n3)ccc12 [C.1.60] | 24 |
| NCC1CCN(c2nc(Nc3ccc4c(c3)NC(=O)CC4)nc3ccoc23)CC1 [C.1.61] | 20 |
| CC(N)C1CCN(c2nc(Nc3ccc4c(c3)NC(=O)C(C)(C)O4)nc3ccoc23)CC1 (stereo not shown) [C.1.62] | -6 |
| CNCC1CCN(c2nc(Nc3ccc4c(c3)NC(=O)C(C)(C)S4)nc3ccoc23)CC1 [C.1.71] | 85 |
| O=C(NC1CC1)c1n[nH]c2cc(Nc3nc(NC4CC4)c4occc4n3)ccc12 [E.2.1, N-Cyclopropyl-6-(4-(cyclopropylamino)furo[3,2-d]pyrimidin-2-ylamino)-1H-indazole-3-carboxamide] | -1 |
| Cc1n[nH]c2cc(Nc3nc(NC4CC4)c4occc4n3)ccc12 [Example #3, N^4-Cyclopropyl-N^2-(3-methyl-1H-indazol-6-yl)furo[3,2-d]pyrimidine-2,4-diamine] | 75 |
| CC1Cc2ccc(Nc3nc(NC4CC4)c4occc4n3)cc2NC1=O (stereo not shown) [Example #6, 7-(4-(Cyclopropylamino)furo[3,2-d]pyrimidin-2-ylamino)-3-methyl-3,4-dihydroquinolin-2(1H)-one] | 59 |
| O=C1CCc2ccc(Nc3nc(NC4CC4)c4occc4n3)cc2N1 [Example #7, 7-(4-(Cyclopropylamino)furo[3,2-d]pyrimidin-2-ylamino)-3,4-dihydroquinolin-2(1H)-one] | 73 |
| CC1(C)C(=O)Nc2cc(Nc3nc(NC4CC4)c4occc4n3)ccc21 [Example #11, 6-(4-(Cyclopropylamino)furo[3,2-d]pyrimidin-2-ylamino)-3,3-dimethylindolin-2-one] | 65 |
